Assays:
Assay type in all cases: biochemical
[1] = system: α-isomaltosyl-transferring enzyme from Arthrobacter globiformis A19; assay: Action on saccharides (substrates, TLC); parameters: key: −: there was found no substrate change before and after the enzymatic reaction; +: there were found both the reduction of substrate and the formation of cyclotetrasaccharide after the enzymatic reaction; conditions: partially purified enzyme, 2 units/g substrate, 2% (w/v) substrate, 30° C., pH 6.0, 24 hours
Summary of the method: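 Purified enzyme (partially purified for A. globiformis A19) at 2 units/g substrate acted on each saccharide at 2% (w/v), pH 6.0, 30° C., 24 h. Pre- and post-reaction mixtures ran on silica gel TLC in n-butanol/pyridine/water (6:4:1). Total sugars were stained by sulfuric acid-methanol and reducing sugars by diphenylamine-aniline.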

[2] = system: α-isomaltosyl-transferring enzyme from Arthrobacter ramosus S1; assay: Action on saccharides (substrates, TLC); parameters: key: −: there was found no substrate change before and after the enzymatic reaction; +: there were found both the reduction of substrate and the formation of cyclotetrasaccharide after the enzymatic reaction; conditions: 2 units/g substrate, 2% (w/v) substrate, 30° C., pH 6.0, 24 hours
Summary of the method: (§1)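 Purified enzyme (2 units/g substrate) was incubated with each saccharide at 2% (w/v), pH 6.0, 30° C. for 24 hours. Reaction mixtures before and after incubation were run on silica gel TLC in n-butanol/pyridine/water (6:4:1), with total sugars stained by sulfuric acid-methanol and reducing sugars by diphenylamine-aniline.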

[3] = system: α-isomaltosyl-transferring enzyme from Bacillus globisporus C11; assay: Action on saccharides (substrates, TLC); parameters: key: −: there was found no substrate change before and after the enzymatic reaction; +: there were found both the reduction of substrate and the formation of cyclotetrasaccharide after the enzymatic reaction; conditions: 2 units/g substrate, 2% (w/v) substrate, 30° C., pH 6.0, 24 hours
Summary of the method: as §1

[4] = system: α-isomaltosyl-transferring enzyme from Bacillus globisporus C9; assay: Action on saccharides (substrates, TLC); parameters: key: −: there was found no substrate change before and after the enzymatic reaction; +: there were found both the reduction of substrate and the formation of cyclotetrasaccharide after the enzymatic reaction; conditions: 2 units/g substrate, 2% (w/v) substrate, 30° C., pH 6.0, 24 hours
Summary of the method: as §1

[5] = system: α-isomaltosyl-transferring enzyme from Bacillus globisporus N75; assay: Action on saccharides (substrates, TLC); parameters: key: −: there was found no substrate change before and after the enzymatic reaction; +: there were found both the reduction of substrate and the formation of cyclotetrasaccharide after the enzymatic reaction; conditions: 2 units/g substrate, 2% (w/v) substrate, 30° C., pH 6.0, 24 hours
Summary of the method: as §1

[6] = system: α-isomaltosyl-transferring enzyme from Arthrobacter globiformis A19; assay: Specificity to transferring acceptor; parameters: key: −: no saccharide transferred product was formed; ±: a saccharide-transferred product formed in an amount of less than one percent to the total sugars; +: a saccharide-transferred product was formed in an amount of over one percent but below 10% to the total sugars; ++: a saccharide-transferred product was formed in an amount of over 10% to the total sugars; conditions: partially purified enzyme, panose as saccharide donor, 10 units/g substrate, 3.2% (w/v), 30° C., pH 6.0, 24 hours
Summary of the method: (§2)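 Each candidate acceptor was mixed with panose donor at equal concentration, then given 10 units/g substrate of enzyme (purified, or partially purified for strain A19) at 3.2% (w/v) total saccharide. Reactions ran 24 hours at 30° C., pH 6.0, and were scored for presence or absence of transfer product.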

[7] = system: α-isomaltosyl-transferring enzyme from Arthrobacter ramosus S1; assay: Specificity to transferring acceptor; parameters: key: −: no saccharide transferred product was formed; ±: a saccharide-transferred product formed in an amount of less than one percent to the total sugars; +: a saccharide-transferred product was formed in an amount of over one percent but below 10% to the total sugars; ++: a saccharide-transferred product was formed in an amount of over 10% to the total sugars; conditions: panose as saccharide donor, 10 units/g substrate, 3.2% (w/v), 30° C., pH 6.0, 24 hours
Summary of the method: as §2

[8] = system: α-isomaltosyl-transferring enzyme from Bacillus globisporus C11; assay: Specificity to transferring acceptor; parameters: key: −: no saccharide transferred product was formed; ±: a saccharide-transferred product formed in an amount of less than one percent to the total sugars; +: a saccharide-transferred product was formed in an amount of over one percent but below 10% to the total sugars; ++: a saccharide-transferred product was formed in an amount of over 10% to the total sugars; conditions: panose as saccharide donor, 10 units/g substrate, 3.2% (w/v), 30° C., pH 6.0, 24 hours
Summary of the method: as §2

[9] = system: α-isomaltosyl-transferring enzyme from Bacillus globisporus C9; assay: Specificity to transferring acceptor; parameters: key: −: no saccharide transferred product was formed; ±: a saccharide-transferred product formed in an amount of less than one percent to the total sugars; +: a saccharide-transferred product was formed in an amount of over one percent but below 10% to the total sugars; ++: a saccharide-transferred product was formed in an amount of over 10% to the total sugars; conditions: panose as saccharide donor, 10 units/g substrate, 3.2% (w/v), 30° C., pH 6.0, 24 hours
Summary of the method: as §2

[10] = system: α-isomaltosyl-transferring enzyme from Bacillus globisporus N75; assay: Specificity to transferring acceptor; parameters: key: −: no saccharide transferred product was formed; ±: a saccharide-transferred product formed in an amount of less than one percent to the total sugars; +: a saccharide-transferred product was formed in an amount of over one percent but below 10% to the total sugars; ++: a saccharide-transferred product was formed in an amount of over 10% to the total sugars; conditions: panose as saccharide donor, 10 units/g substrate, 3.2% (w/v), 30° C., pH 6.0, 24 hours
Summary of the method: as §2

| Compound | Enzymatic action for forming cyclotetrasaccharide, Enzyme of Strain A19 [1] | Enzymatic action for forming cyclotetrasaccharide, Enzyme of Strain S1 [2] | Enzymatic action for forming cyclotetrasaccharide, Enzyme of Strain C11 [3] | Enzymatic action for forming cyclotetrasaccharide, Enzyme of Strain C9 [4] | Enzymatic action for forming cyclotetrasaccharide, Enzyme of Strain N75 [5] | Product of transferring reaction, Enzyme of Stain A19 [6] | Product of transferring reaction, Enzyme of Strain S1 [7] | Product of transferring reaction, Enzyme of Strain C11 [8] | Product of transferring reaction, Enzyme of Strain C9 [9] | Product of transferring reaction, Enzyme of Strain N75 [10] |
| --- | --- | --- | --- | --- | --- | --- | --- | --- | --- | --- |
| OC[C@H]1O[C@@](CO)(O[C@H]2O[C@H](CO)[C@@H](O)[C@H](O)[C@H]2O)[C@@H](O)[C@@H]1O [Sucrose, sucrose] | − | − | − | − | − | + (a saccharide-transferred product was formed in an amount of over one percent but below 10% to the total sugars) | + (a saccharide-transferred product was formed in an amount of over one percent but below 10% to the total sugars) | + (a saccharide-transferred product was formed in an amount of over one percent but below 10% to the total sugars) | + (a saccharide-transferred product was formed in an amount of over one percent but below 10% to the total sugars) | + (a saccharide-transferred product was formed in an amount of over one percent but below 10% to the total sugars) |
| OC[C@H]1O[C@H](O[C@H]2O[C@H](CO)[C@@H](O)[C@H](O)[C@H]2O)[C@H](O)[C@@H](O)[C@@H]1O [α,α-Trehalose, α,α-trehalose] | − | − | − | − | − | + (a saccharide-transferred product was formed in an amount of over one percent but below 10% to the total sugars) | + (a saccharide-transferred product was formed in an amount of over one percent but below 10% to the total sugars) | + (a saccharide-transferred product was formed in an amount of over one percent but below 10% to the total sugars) | + (a saccharide-transferred product was formed in an amount of over one percent but below 10% to the total sugars) | + (a saccharide-transferred product was formed in an amount of over one percent but below 10% to the total sugars) |
| OC[C@H]1O[C@@H](O[C@H]2O[C@H](CO)[C@@H](O)[C@H](O)[C@H]2O)[C@H](O)[C@@H](O)[C@@H]1O [α,β-trehalose] | − | − | − | − | − | ++ (a saccharide-transferred product was formed in an amount of over 10% to the total sugars) | ++ (a saccharide-transferred product was formed in an amount of over 10% to the total sugars) | ++ (a saccharide-transferred product was formed in an amount of over 10% to the total sugars) | ++ (a saccharide-transferred product was formed in an amount of over 10% to the total sugars) | ++ (a saccharide-transferred product was formed in an amount of over 10% to the total sugars) |
| OC[C@H]1O[C@@H]2O[C@H]3[C@H](O)[C@@H](O)[C@@H](O[C@H]4[C@H](O)[C@@H](O)[C@@H](O[C@H]5[C@H](O)[C@@H](O)[C@@H](O[C@H]6[C@H](O)[C@@H](O)[C@@H](O[C@H]7[C@H](O)[C@@H](O)[C@@H](O[C@H]1[C@H](O)[C@H]2O)O[C@@H]7CO)O[C@@H]6CO)O[C@@H]5CO)O[C@@H]4CO)O[C@@H]3CO [α-Cyclodextrin, α-cyclodextrin] | − | − | − | − | − | − | − | − | − | − |
| OC[C@H]1O[C@@H]2O[C@H]3[C@H](O)[C@@H](O)[C@@H](O[C@H]4[C@H](O)[C@@H](O)[C@@H](O[C@H]5[C@H](O)[C@@H](O)[C@@H](O[C@H]6[C@H](O)[C@@H](O)[C@@H](O[C@H]7[C@H](O)[C@@H](O)[C@@H](O[C@H]8[C@H](O)[C@@H](O)[C@@H](O[C@H]1[C@H](O)[C@H]2O)O[C@@H]8CO)O[C@@H]7CO)O[C@@H]6CO)O[C@@H]5CO)O[C@@H]4CO)O[C@@H]3CO [β-Cyclodextrin, β-cyclodextrin] | − | − | − | − | − | − | − | − | − | − |
| OC[C@H]1O[C@@H]2O[C@H]3[C@H](O)[C@@H](O)[C@@H](O[C@H]4[C@H](O)[C@@H](O)[C@@H](O[C@H]5[C@H](O)[C@@H](O)[C@@H](O[C@H]6[C@H](O)[C@@H](O)[C@@H](O[C@H]7[C@H](O)[C@@H](O)[C@@H](O[C@H]8[C@H](O)[C@@H](O)[C@@H](O[C@H]9[C@H](O)[C@@H](O)[C@@H](O[C@H]1[C@H](O)[C@H]2O)O[C@@H]9CO)O[C@@H]8CO)O[C@@H]7CO)O[C@@H]6CO)O[C@@H]5CO)O[C@@H]4CO)O[C@@H]3CO [γ-Cyclodextrin, γ-cyclodextrin] | − | − | − | − | − | − | − | − | − | − |
| maltopentaose | − | − | − | − | − | + (a saccharide-transferred product was formed in an amount of over one percent but below 10% to the total sugars) | ± (a saccharide-transferred product formed in an amount of less than one percent to the total sugars) | + (a saccharide-transferred product was formed in an amount of over one percent but below 10% to the total sugars) | + (a saccharide-transferred product was formed in an amount of over one percent but below 10% to the total sugars) | ± (a saccharide-transferred product formed in an amount of less than one percent to the total sugars) |

— patent publication US7192746B2, “α-Isomaltosyltransferase, process for producing the same and use thereof” (Kabushiki Kaisha Hayashibara Seibutsu Kagaku Kenkyujo, priority 2000, dated 2007)
